Results reported in patent US20250041329A1, “ACIDIC POLYMER COMPOSITIONS AND METHODS OF USE THEREOF” (NexEos Diagnostics, Inc., priority 2023, published 2025).
Read-outs that look alike come from different tables or passages of the source.

B1: eMBP1: eosinophil major basic protein-1, 13.8 kDa single polypeptide of the eosinophil granule core; stimulus in the assays (protein, UniProt P13727 17-222, looked up)
Bone marrow proteoglycan: LHLRSETSTFETPLGAKTLPEDEETPEQEMEETPCRELEEEEEWGSGSEDASKKDGAVESISVPDMVDKNLTCPEEEDTVKVVGIPGCQTCRYLLVRSLQTFSQAWFTCRRCYRGNLVSIHNFNINYRIQCSVSALNQGQVWIGGRITGSGRCRRFQWVDGSRWNFAYWAAHQPWSRGGHCVALCTRGGHWRRAHCLRRLPFICSY
modifications: Bone marrow proteoglycan
notes: eosinophil major basic protein-1, 13.8 kDa single polypeptide of the eosinophil granule core; stimulus in the assays

Assays:
[1] = molecular target: T1, eMBP1 (Homo sapiens, UniProt P13727); assay: eMBP1 neutralization assay; assay type: cell-based; conditions: for Hill Slope: eMBP1 neutralization curve fit; for IC50: eMBP1 neutralization potency
T1 construct: the pro-piece is removed during granule maturation in the eosinophilic leukocyte to convert pro-eMBP1 to eMBP1
T1 sequence (P13727 106-222): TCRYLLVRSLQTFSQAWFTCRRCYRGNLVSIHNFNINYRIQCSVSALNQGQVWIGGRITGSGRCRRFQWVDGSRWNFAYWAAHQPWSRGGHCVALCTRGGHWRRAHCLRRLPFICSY
Source text: Methods: The goal of the investigation is to design and test a peptide product to neutralize and, thus, mitigate toxic effects of eosinophil granule proteins as a treatment for eosinophil-related diseases. Specifically, one aim is to test various polymers of acidic amino acids (i.e., glutamate and aspartate) for their ability to neutralize eMBP1 and compare their potencies to those of the pro-piece of pro-eosinophil major basic protein 1 (pro-eMBP1) as well as various heparins, i.e., low molecular weight heparin, high molecular weight heparin, and unfractionated heparin.
Because pro-piece (PP) can neutralize the toxicity of eMBP1, we reasoned that a careful study of the carbohydrate and acidic peptide structures might elucidate the comparative functions of these domains and lead to an effective eMBP1 inhibitor. We obtained heparins and polymers of the acidic amino acids, glutamic and aspartic, and compared their potencies in the eMBP1 neutralization assay.

[2] = cited from earlier work
[3] = molecular target: T1, eMBP1; assay: Inhibition of eMBP1-stimulated histamine release from mast cells; assay type: cell-based; conditions: each inhibitor 50 μg/ml; eMBP1 10^−6 M; rat peritoneal mast cells; FIGS. 3A-3B
Method: (§1) Methods: To determine if the compounds shown in Table 2 had the ability to inhibit eMBP1 in a different assay, the compounds were tested for their ability to inhibit eMBP1-stimulated histamine release from mast cells. Peritoneal cells from male rats were harvested, enriched by centrifugation through a cushion of 38% bovine serum albumin (with purities up to about 90%), and stimulated with eMBP1. As expected from previous work, eMBP1 at a concentration of 10^−6 M stimulated histamine release. Specifically, approximately 63% of total histamine was released (as determined by boiling the rat mast cells), and 84% was released in comparison to the amount released by compound 48/80 at 0.1 μg/ml.
In order to test inhibition of eMBP1-stimulated histamine release, each inhibitor was provided as a concentration of 50 μg/ml. Polyglutamic acid (Sigma P4761) in the molecular weight range of 15-50 kDa was utilized for testing.

[4] = system: mast cells; assay: Histamine release from mast cells stimulated with eMBP1; assay type: cell-based, rat; conditions: eMBP1 10^−6 M
Method: as §1

[5] = IC50 molar concentration, read-out: IC50

Molecule	Hill Slope [1]	IC50 [1]	IC50 [1, 5]	also measured
α poly-L-aspartic acid [α poly-L-Asp 1.15 kDa]	2.808	14.3 µg/mL	12400 nM	–
α poly-D-glutamic acid	2.445	5.197 µg/mL	157 nM	–
γ polyglutamic acid [γ poly-Glu >700 kDa]	11.5	3.317 µg/mL	< 4.74 nM	–
α poly-L-aspartic acid [α poly-L-Asp 23 kDa]	3.061	4.301 µg/mL	187 nM	–
α poly-L-glutamic acid [α poly-L-Glu 33 kDa]	2.786	5.118 µg/mL	155 nM	–
N[C@@H](CC(=O)O)C(=O)O [monomer aspartic acid, aspartic acid, reference compound]	–	–	–	pKa [2]: about 1.92; eMBP1 inhibitory activity (in words) ([1]; eMBP1 neutralization, Table 2 / FIG. 1): devoid of eMBP1 inhibitory activity
α poly-L-glutamic acid [α poly-L-Glu 120 kDa]	2.621	4.525 µg/mL	37.7 nM	–
α poly-L-glutamic acid [α poly-L-Glu 9 kDa]	3.499	5.961 µg/mL	662 nM	–
α poly-L-aspartic acid [α poly-L-Asp 5.75 kDa]	2.929	4.817 µg/mL	838 nM	–
α poly-L-glutamic acid [α poly-L-Glu 7.5 kDa]	3.202	6.158 µg/mL	821 nM	–
γ polyglutamic acid [γ poly-Glu <10 kDa]	2.534	4.62 µg/mL	> 462 nM	–
α poly-L-glutamic acid [α poly-L-Glu 2.6 kDa]	2.581	6.965 µg/mL	2680 nM	–
Polyglutamic acid	–	–	–	inhibition of eMBP1-stimulated histamine release [3]: roughly comparably and more potently than unfractionated heparin and both glycosylated and unglycosylated pro-piece
γ polyglutamic acid [γ poly-Glu 1.2 kDa]	2.177	19.6000 µg/mL	16300 nM	–
B1	–	–	–	histamine released in comparison to the amount released by compound 48/80 ([4]; compound 48/80 at 0.1 μg/ml): 84%; histamine released, of total histamine ([4]; total determined by boiling the rat mast cells): approximately 63%
